Measured values taken from patent US20250171423A1, “PHARMACEUTICAL COMPOUNDS FOR THE TREATMENT OF COMPLEMENT MEDIATED DISORDERS” (Achillion Pharmaceuticals, Inc., priority 2020, published 2025).

Biological target: T1, Human complement C1s enzyme (Homo sapiens, UniProt P09871)
T1 construct: purified from human serum, Complement Technology, Inc; purchased Complement Technology, Inc; host or cells: human serum
T1 sequence (P09871 438-688 limits assumed): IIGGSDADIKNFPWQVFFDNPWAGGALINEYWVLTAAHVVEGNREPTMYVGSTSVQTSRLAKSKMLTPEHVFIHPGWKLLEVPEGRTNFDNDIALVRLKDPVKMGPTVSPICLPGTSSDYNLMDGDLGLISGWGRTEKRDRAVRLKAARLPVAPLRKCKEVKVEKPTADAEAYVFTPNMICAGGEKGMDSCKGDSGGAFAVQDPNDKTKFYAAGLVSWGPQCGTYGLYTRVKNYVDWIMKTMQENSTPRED
T1 sequence (P09871 16-437 partner limits assumed): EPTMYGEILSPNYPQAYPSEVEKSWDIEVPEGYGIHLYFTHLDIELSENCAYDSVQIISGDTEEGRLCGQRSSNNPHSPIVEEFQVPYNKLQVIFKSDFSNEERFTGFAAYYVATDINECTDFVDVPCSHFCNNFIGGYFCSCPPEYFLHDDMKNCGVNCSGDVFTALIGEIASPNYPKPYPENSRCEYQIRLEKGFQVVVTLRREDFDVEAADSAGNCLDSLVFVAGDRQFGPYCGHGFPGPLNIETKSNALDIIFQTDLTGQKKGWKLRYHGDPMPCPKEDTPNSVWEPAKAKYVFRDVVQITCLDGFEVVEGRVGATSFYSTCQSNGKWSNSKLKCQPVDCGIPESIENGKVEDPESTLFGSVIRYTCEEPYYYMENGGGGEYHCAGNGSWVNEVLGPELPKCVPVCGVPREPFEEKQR
Assay: Human C1s Enzyme Assay
Format: biochemical
Details: human C1s 1.16 nM, 5 min preincubation, substrate Z-L-Lys-SBzl 100 μM, A405; read-out: C1s Protease Activity
Procedure, shortened: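 C1s purified from human serum (1.16 nM final) was preincubated with compound for 5 min at room temperature in 50 mM Tris, 1 M NaCl, pH 7.5. Z-L-Lys-SBzl and DTNB were then added at 100 μM each, and A405 was followed for 30 min. IC50 came from nonlinear regression of reaction rates.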

Row | SMILES | IC50 [nM]
1 | N=C(N)c1csc(CNC(=O)[C@@H]2CC3(CN2C(=O)CNC(=O)CCCOc2ccc(C4CC4)cc2)OCCO3)c1 [Compound 208, (S)-N-((4-carbamimidoylthiophen-2-yl)methyl)-7-((4-(4-cyclopropylphenoxy)butanoyl)glycyl)-1,4-dioxa-7-azaspiro[4.4]nonane-8-carboxamide] | < 100
2 | CNC(=O)C(NC(=O)[C@@H]1C[C@@H](OC(F)F)CN1C(=O)CNC(=O)c1ccc(Oc2ccccc2)cc1)c1cc(C(=N)N)cs1 (stereo partly drawn) [Compound 210, (2S,4R)-N-(1-(4-carbamimidoylthiophen-2-yl)-2-(methylamino)-2-oxoethyl)-4-(difluoromethoxy)-1-((4-phenoxybenzoyl)glycyl)pyrrolidine-2-carboxamide] | > 1000
3 | N=C(N)c1csc(CNC(=O)[C@@H]2CC[C@@H]3CC[C@H](NC(=O)c4ccc(Oc5ccccc5)cc4)C(=O)N32)c1 [Compound 211, (3S,6S,8aS)-N-((4-carbamimidoylthiophen-2-yl)methyl)-5-oxo-6-(4-phenoxybenzamido)octahydroindolizine-3-carboxamide] | 100 to 1000
4 | C[C@H](Oc1ccc(C(=O)NCC(=O)N2[C@H]3C[C@@]3(C)C[C@H]2C(=O)NCc2cc(C(=N)N)cs2)cc1)c1ccccc1 [Compound 212, (1S,3S,5S)-N-((4-carbamimidoylthiophen-2-yl)methyl)-5-methyl-2-((4-((S)-1-phenylethoxy)benzoyl)glycyl)-2-azabicyclo[3.1.0]hexane-3-carboxamide] | < 100
5 | COC[C@@H](NC(=O)[C@@H]1C[C@@H](OC(F)F)CN1C(=O)CNC(=O)c1ccc(Oc2ccccc2)cc1)c1cc(C(=N)N)cs1 [Compound 213, (2S,4R)-N-((R)-1-(4-carbamimidoylthiophen-2-yl)-2-methoxyethyl)-4-(difluoromethoxy)-1-((4-phenoxybenzoyl)glycyl)pyrrolidine-2-carboxamide] | > 1000
6 | Cc1sc(CNC(=O)[C@@H]2C[C@]3(C)C[C@@H]3N2C(=O)CNC(=O)CCCOc2ccccc2)cc1C(=N)N [Compound 216, (1S,3S,5S)-N-((4-carbamimidoyl-5-methylthiophen-2-yl)methyl)-5-methyl-2-((4-phenoxybutanoyl)glycyl)-2-azabicyclo[3.1.0]hexane-3-carboxamide] | > 1000
7 | N=C(N)c1csc([C@@H](NC(=O)[C@@H]2CC3(CN2C(=O)CNC(=O)CCCOc2ccccc2)OCCO3)c2ccccc2)c1 [Compound 217, (S)-N-((S)-(4-carbamimidoylthiophen-2-yl)(phenyl)methyl)-7-((4-phenoxybutanoyl)glycyl)-1,4-dioxa-7-azaspiro[4.4]nonane-8-carboxamide] | > 1000
8 | COC[C@@]1(F)C[C@@H](C(=O)N[C@H](C)c2cc(C(=N)N)cs2)N(C(=O)CNC(=O)c2ccc(C(=O)c3ccccc3)cc2)C1 [Compound 218, (2S,4R)-1-((4-benzoylbenzoyl)glycyl)-N-((R)-1-(4-carbamimidoylthiophen-2-yl)ethyl)-4-fluoro-4-(methoxymethyl)pyrrolidine-2-carboxamide] | < 100
9 | C[C@@H](NC(=O)[C@@H]1CC2(CN1C(=O)CNC(=O)c1ccc(C(=O)c3ccccc3)cc1)OCCO2)c1cc(C(=N)N)cs1 [Compound 219, (S)-7-((4-benzoylbenzoyl)glycyl)-N-((R)-1-(4-carbamimidoylthiophen-2-yl)ethyl)-1,4-dioxa-7-azaspiro[4.4]nonane-8-carboxamide] | < 100
10 | CC(C)C[C@H](NC(=O)[C@@H]1CC2(CN1C(=O)CNC(=O)CCCOc1ccccc1)OCCO2)c1cc(C(=N)N)cs1 [Compound 221, (S)-N-((S)-1-(4-carbamimidoylthiophen-2-yl)-3-methylbutyl)-7-((4-phenoxybutanoyl)glycyl)-1,4-dioxa-7-azaspiro[4.4]nonane-8-carboxamide] | > 1000
11 | C/N=C(/NC)c1csc(CNC(=O)[C@@H]2C[C@]3(C)C[C@@H]3N2C(=O)CNC(=O)c2ccc(Oc3ccccc3)cc2)c1 [Compound 222, (1S,3S,5S)-N-((4-((E)-N,N′-dimethylcarbamimidoyl)thiophen-2-yl)methyl)-5-methyl-2-((4-phenoxybenzoyl)glycyl)-2-azabicyclo[3.1.0]hexane-3-carboxamide] | > 1000
12 | C[C@@H](Oc1ccc(C(=O)NCC(=O)N2[C@H]3C[C@@]3(C)C[C@H]2C(=O)NCc2cc(C(=N)N)cs2)cc1)c1ccccc1 [Compound 223, (1S,3S,5S)-N-((4-carbamimidoylthiophen-2-yl)methyl)-5-methyl-2-((4-((R)-1-phenylethoxy)benzoyl)glycyl)-2-azabicyclo[3.1.0]hexane-3-carboxamide] | < 100
13 | C[C@@H](NC(=O)[C@@H]1C[C@](F)(COCCCCCC(=O)O)CN1C(=O)CNC(=O)CCCOc1ccccc1)c1cc(C(=N)N)cs1 [Compound 234, 6-(((3R,5S)-5-(((R)-1-(4-carbamimidoylthiophen-2-yl)ethyl)carbamoyl)-3-fluoro-1-((4-phenoxybutanoyl)glycyl)pyrrolidin-3-yl)methoxy)hexanoic acid] | < 100
14 | C[C@@]12C[C@@H]1N(C(=O)CNC(=O)c1ccc(Oc3ccccc3)cc1)[C@H](C(=O)NCc1ncc(C(=N)N)s1)C2 [Compound 235, (1S,3S,5S)-N-((5-carbamimidoylthiazol-2-yl)methyl)-5-methyl-2-((4-phenoxybenzoyl)glycyl)-2-azabicyclo[3.1.0]hexane-3-carboxamide] | < 100
15 | CN/C(=N/C#N)c1csc(CNC(=O)[C@@H]2C[C@]3(C)C[C@@H]3N2C(=O)CNC(=O)c2ccc(Oc3ccccc3)cc2)c1 [Compound 236, (1S,3S,5S)-N-((4-((E)-N′-cyano-N-methylcarbamimidoyl)thiophen-2-yl)methyl)-5-methyl-2-((4-phenoxybenzoyl)glycyl)-2-azabicyclo[3.1.0]hexane-3-carboxamide] | > 1000
16 | C[C@@]12C[C@@H]1N(C(=O)CNC(=O)c1ccc(Oc3ccccc3)cc1)[C@H](C(=O)Nc1ccc3c(C(=N)N)csc3c1)C2 [Compound 237, (1S,3S,5S)-N-(3-carbamimidoylbenzo[b]thiophen-6-yl)-5-methyl-2-((4-phenoxybenzoyl)glycyl)-2-azabicyclo[3.1.0]hexane-3-carboxamide] | 100 to 1000
17 | Cc1ccccc1[C@H]1C[C@@H](C(=O)N[C@H](C)c2cc(C(=N)N)cs2)N(C(=O)CNC(=O)c2ccc(Oc3ccccc3)cc2)C1 [Compound 238, (2S,4R)-N-((R)-1-(4-carbamimidoylthiophen-2-yl)ethyl)-1-((4-phenoxybenzoyl)glycyl)-4-(o-tolyl)pyrrolidine-2-carboxamide] | < 100
18 | C[C@@]12C[C@@H]1N(C(=O)CNC(=O)c1ccc(Oc3ccccc3)cc1)[C@H](C(=O)NCc1cc(C(=N)N)c(F)s1)C2 [Compound 239, (1S,3S,5S)-N-((4-carbamimidoyl-5-fluorothiophen-2-yl)methyl)-5-methyl-2-((4-phenoxybenzoyl)glycyl)-2-azabicyclo[3.1.0]hexane-3-carboxamide] | < 100
19 | C[C@@H](NC(=O)[C@@H]1C[C@]2(C)C[C@@H]2N1C(=O)CNC(=O)c1ccc(Oc2ccccc2)cc1)c1cc(-c2ncc[nH]2)cs1 [Compound 240, (1S,3S,5S)-N-((R)-1-(4-(1H-imidazol-2-yl)thiophen-2-yl)ethyl)-5-methyl-2-((4-phenoxybenzoyl)glycyl)-2-azabicyclo[3.1.0]hexane-3-carboxamide] | < 100
